Assay results from PMC8198181, “Evaluation of Substituted N-Phenylpiperazine Analogs as D3 vs. D2 Dopamine Receptor Subtype Selective Ligands” (Molecules, 2021).
Values joined by “and” are separate entries in the source; they are usually repeats but may differ in a detail not shown here. Identical values can stand only once. “Also recorded” adds a separate entry of the source. Like-named read-outs stand apart in the source and are kept apart here.

How the values were obtained:
D3 dopamine receptor [1] = target: T1, D3 dopamine receptor (Homo sapiens, UniProt P35462); design: method as in PMID 15582454; conditions: cited from earlier work
T1 sequence (P35462 whole entry): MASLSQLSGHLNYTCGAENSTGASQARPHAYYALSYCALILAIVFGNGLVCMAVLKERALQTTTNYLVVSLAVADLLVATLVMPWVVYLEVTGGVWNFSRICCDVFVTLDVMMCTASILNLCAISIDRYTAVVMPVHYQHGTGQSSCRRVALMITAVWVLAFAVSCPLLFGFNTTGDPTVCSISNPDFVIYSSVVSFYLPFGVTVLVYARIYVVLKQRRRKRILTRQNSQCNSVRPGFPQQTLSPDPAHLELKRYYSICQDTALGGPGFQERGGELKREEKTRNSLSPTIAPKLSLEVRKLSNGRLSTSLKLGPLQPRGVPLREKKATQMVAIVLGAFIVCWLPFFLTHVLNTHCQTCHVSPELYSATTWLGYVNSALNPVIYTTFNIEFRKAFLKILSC

D3 dopamine receptor [2] = target: T1, D3 dopamine receptor; conditions: for D2:D3 Selectivity: ratio of D2 and D3 Ki values (Table 1)
Protocol: Competitive radioligand binding techniques were used to determine the Ki values of ligands at human D2 and D3 dopamine receptors expressed in stably transfected HEK cells (Table 1).
The final radioligand concentration was approximately equal to the Kd value for the binding of the radioligand. […] For each competition curve, triplicates were performed using two concentrations of inhibitor per decade over five orders of magnitude.
The competition curves were modeled for a single binding site using Bs = Bo − ((Bo + L)/(IC50 + L)) where Bs is the amount of ligand bound to receptor and Bo is the amount of ligand bound to receptor in the absence of competitive inhibitor. L is the concentration of the competitive inhibitor. […] The values for Bs and Bo were constrained using experimentally derived values. The IC50 values were converted to equilibrium dissociation constants (Ki) [50, 51]. Mean Ki values ± S.E.M. are reported for at least three independent experiments.

human 5-HT1A receptor = target: T2, human 5-HT1A receptor (Homo sapiens, UniProt P08908); assay: 5-HT1A receptor binding ([3H]8-hydroxy-DPAT displacement, CHO-K1 membranes); conditions: for 5-HT1A receptor affinity/displacement in words: radioligand displacement assessment at 91 nM; for inhibition at 0.091 µM: single point displacement of [3H]-8-hydroxy-DPAT, 91 nM test compound, CHO-K1, ± S.E.M., n ≥ 3
T2 construct: expressed in transfected cells; host or cells: CHO-K1
T2 sequence (P08908 1-422): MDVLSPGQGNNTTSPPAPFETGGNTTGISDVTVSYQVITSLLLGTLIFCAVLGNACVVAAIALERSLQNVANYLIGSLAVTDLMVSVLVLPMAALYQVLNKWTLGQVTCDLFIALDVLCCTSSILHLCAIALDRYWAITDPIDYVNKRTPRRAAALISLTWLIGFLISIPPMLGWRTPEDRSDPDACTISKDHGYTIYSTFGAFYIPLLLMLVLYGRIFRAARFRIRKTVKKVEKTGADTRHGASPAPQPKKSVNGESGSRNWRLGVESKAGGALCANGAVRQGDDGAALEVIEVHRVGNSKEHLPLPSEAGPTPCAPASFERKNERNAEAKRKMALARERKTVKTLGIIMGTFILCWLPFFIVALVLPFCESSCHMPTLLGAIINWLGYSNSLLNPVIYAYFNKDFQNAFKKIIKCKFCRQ
Protocol: Because the 5-HT1A receptor is a commonly observed off-site binding site for benzamide N-phenylpiperazine ligands, compounds were simultaneously screened for binding of our compounds at the human 5-HT1A receptor expressed in CHO-K1 cells, using the radioligand [^3H]-8-hydroxy-DPAT (8-OH-DPAT) (Table 2). Based upon the analysis of the displacement assay shown in Table 2, the orthosteric compounds 3c–f appeared to bind with low affinity at human 5-HT1A receptors.
10 μg of membranes from CHO-K1 cells expressing the human 5-HT1A receptor were suspended in 50 mM Tris-HCl, 10 mM MgSO4, 0.5 mM EDTA, and 0.1% (w/v) ascorbic acid, pH 7.4 and test ligands (91 nM for single point radioligand displacement assay and 1 nM to 1 μM for full competition assay) were incubated with 0.25 nM [^3H]8-hydroxy-DPAT (PerkinElmer, Boston, MA, USA) for 60 min at room temperature. The nonspecific binding was determined using 10 μM metergoline (Sigma, St. Louis, MO, USA). After incubation, the bound ligands were filtered using an M-24 Brandel filtration system (Brandel, Gaithersburg, MD, USA), collected on glass fiber papers (Whatman grade 934-AH, GE Healthcare Bio-Sciences, Pittsburgh, PA, USA), and the radioactivity was quantitated using a MicroBeta2 Microplate scintillation counter 2450 (PerkinElmer, Boston, MA, USA).

D3 dopamine receptor [3] = target: T1, D3 dopamine receptor; assay: Forskolin-dependent adenylyl cyclase inhibition assay (cAMP-Glo, HEK cells); format: cell-based; design: expressed in transfected cells; host or cells: HEK293; conditions: human D3, test compound at 10x Ki, normalized to quinpirole 10,000 nM
Protocol: (§1) Quinpirole was used as a reference prototypic full agonist and haloperidol was used as a reference prototypic antagonist.
The forskolin-dependent adenylyl cyclase inhibition assay was performed using a cAMP-Glo Assay kit (Promega). For this assay cAMP stimulates protein kinase A (PKA) activity, which leads to a decrease in ATP levels and a decrease in the luciferase-coupled production of light. This is a 96 well plate assay using HEK cells stably transfected to express the human D3 dopamine receptor (10,000 cells/well/0.1 mL complete media). After removing media and rinsing with phosphate buffered saline, cells were incubated with 20 μL of forskolin (6000 nM) and test compound or vehicle. […] After cells, test compound (or vehicle) and forskolin (or vehicle) were incubated for 15 min, cells were lysed using 20 μL lysis buffer (provided with the kit) and mixed for 15 min at room temperature. A cAMP Detection Solution (40 μL) was added to each well, gently mixed for 60 s and incubated at room temperature for 20 min. The Kinase-Glo Solution was added (40 μL) to terminate the PKA reaction. The reaction mixture was gently mixed for 60 s and then incubated at room temperature for 10 min. The remaining ATP was detected via a luciferase reaction. The plates were read using an Enspire Alpha 2390 Multilabel Reader/Luminometer. Haloperidol (200 nM) and quinpirole (10,000 nM) was used as a prototypic reference antagonist and full agonist, respectively.
(§2) Figure 3 Comparison of the Efficacy of Phenylthiophene Analogs for Adenylyl Cyclase Inhibition and β-Arrestin Binding at Human D3 Dopamine Receptors. […] Values were normalized to reference full agonist quinpirole (10,000 nM).

D3 dopamine receptor [4] = target: T1, D3 dopamine receptor; assay: β-arrestin binding assay (DiscoverX PathHunter, DRD3-U2OS cells); format: cell-based; design: host or cells: U2OS (PathHunter eXpress DRD3-U2OS); conditions: human D3, test compound at 10x Ki, normalized to quinpirole
Protocol: as §1
The β-arrestin binding assay was performed using a DiscoverX Pathhunter® kit according to the manufacturer’s instructions. PathHunter® eXpress β-Arrestin GPCR cells are engineered to co-express the ProLink™ (PK) tagged GPCR and the Enzyme Acceptor (EA) tagged β-Arrestin. Activation of the GPCR-PK induces β-Arrestin-EA recruitment, forcing complementation of the two β-galactosidase enzyme fragments (EA and PK). The resulting functional enzyme hydrolyzes substrate to generate a chemiluminescent signal. DRD3-U2OS cells were seeded according to kit instructions into white plastic 96-well plates (provided with the kit) 48 h prior to the assay in a volume of 100 μL/well using the Cell Plating Reagent (CPR) provided. Vehicle or test drug, diluted in CPR, was added to the designated wells and incubated for 90 min at 37 °C. Working detection solution (a component provided with the kit) was added to the wells and incubated for 1 h in the dark at room temperature. As discussed for the cyclase assay, an Enspire Alpha 2390 Multilabel Reader/Luminometer was used to detect the luminescent signal with haloperidol and quinpirole used as reference antagonist and full agonist, respectively.
as §2

[5] = target: human D3 dopamine receptor; conditions: read-out: Ki D3 (hD3), previously published; Figure 1 and text; cited from earlier work

| Compound | Ki (D3 dopamine receptor [2]) [nM] | D2:D3 Selectivity (D3 dopamine receptor [2]) | 5-HT1A receptor affinity/displacement in words (human 5-HT1A receptor) | inhibition at 0.091 µM (human 5-HT1A receptor) [%] | other results |
| --- | --- | --- | --- | --- | --- |
| O=C(NCCCCN1CCN(c2ccccc2OCCF)CC1)c1ccc(-c2ccsc2)cc1 [LS-3-134] | – | – | – | – | % of maximum efficacy, adenylyl cyclase inhibition assay (D3 dopamine receptor [1]): 35% and 34.4 ± 1.7% |
| O=C(NCCCCN1CCN(c2ccc(F)cc2OCCF)CC1)c1ccc(-c2cscn2)cc1 [Compound 7f] | 4.8 ± 0.28 | 72.9 | substantial affinity | 37.1 ± 24.4 | – |
| O=C(NCCCCN1CCN(c2ccc(F)cc2)CC1)c1ccc(-c2cscn2)cc1 [Compound 7c] | 28.6 ± 2.1 | 140 | – | 12.2 ± 3.1 | – |
| CCCCN1CCN(c2cc(C#N)ccc2F)CC1 [Compound 3d] | 726 ± 101 | 7.5 | – | -18 ± 11.1 | – |
| N#Cc1ccc(F)c(N2CCN(CCCCNC(=O)c3ccc(-c4ccsc4)cc3)CC2)c1 [Compound 6d] | 15.5 ± 1.3 | 290 | – | 2.5 ± 3.5 | efficacy in adenylyl cyclase inhibition assay (D3 dopamine receptor [3]): antagonists; efficacy in β-arrestin binding assay (D3 dopamine receptor [4]): antagonists |
| O=C(NCCCCN1CCN(c2ccc(C(F)(F)F)cc2F)CC1)c1ccc(-c2cscn2)cc1 [Compound 7e] | 30.9 ± 2.6 | – | – | 7.6 ± 6.5 | efficacy in adenylyl cyclase inhibition assay (D3 dopamine receptor [3]): antagonists; efficacy in β-arrestin binding assay (D3 dopamine receptor [4]): antagonists |
| CCCCN1CCN(c2cccc(F)c2)CC1 [Compound 3b] | 1000 ± 118 | 2.5 | partially displace | 36.1 ± 2.1 | – |
| O=C(NCCCCN1CCN(c2cccc(Cl)c2Cl)CC1)c1ccc(-c2ccccn2)cc1 [PG 01037] | – | – | – | – | Ki [5]: 0.7 nM |
| CCCCN1CCN(c2ccc(F)cc2)CC1 [Compound 3c] | 1180 ± 240 | 2.6 | – | 5.1 ± 11.2 | – |
| O=C(NCCCCN1CCN(c2ccc(F)cc2OCCF)CC1)c1ccc(-c2ccsc2)cc1 [Compound 6f] | 6.1 ± 0.2 | 67.4 | – | 16.9 ± 24.4 | – |
| CCCCN1CCN(c2ccc(F)cc2OCCF)CC1 [Compound 3f] | 351 ± 42.1 | 1.0 | – | 1.7 ± 21.7 | – |
| O=C(NCCCCN1CCN(c2ccc(C(F)(F)F)cc2F)CC1)c1ccc(-c2ccsc2)cc1 [Compound 6e] | 43.3 ± 9.2 | >1800 | – | 6.1 ± 6.8 | – |
| O=C(NCCCCN1CCN(c2cccc(F)c2)CC1)c1ccc(-c2ccsc2)cc1 [Compound 6b] | 7.9 ± 1.4 | 296 | substantial affinity | 74.7 ± 1.9 | efficacy in adenylyl cyclase inhibition assay (D3 dopamine receptor [3]): weak partial agonists; efficacy in β-arrestin binding assay (D3 dopamine receptor [4]): weak partial agonists |
| O=C(NCCCCN1CCN(c2ccc(F)cc2)CC1)c1ccc(-c2ccsc2)cc1 [Compound 6c] | 12.4 ± 1.6 | 579 | – | -7.7 ± 23.5 | efficacy in adenylyl cyclase inhibition assay (D3 dopamine receptor [3]): weak partial agonist; efficacy in β-arrestin binding assay (D3 dopamine receptor [4]): very weak partial agonist/antagonist |
| O=C(NCCCCN1CCN(c2ccccc2F)CC1)c1ccc(-c2cscn2)cc1 [Compound 7a] | 2.5 ± 0.22 | 190 | substantial affinity; also recorded: increased affinity | 65.8 ± 5 | Ki (human 5-HT1A receptor; full competition curve, [3H]-8-hydroxy-DPAT, at least three experiments, read-out: Ki at 5-HT1A receptor): 14.3 ± 7.1 nM |
| O=C(NCCCCN1CCN(c2cccc(Cl)c2Cl)CC1)c1ccc2c(c1)Cc1ccccc1-2 [NGB 2904] | – | – | – | – | Ki [5]: 2 nM |
| O=C(NCCCCN1CCN(c2cccc(F)c2)CC1)c1ccc(-c2cscn2)cc1 [Compound 7b] | 24 ± 5.5 | 165 | substantial affinity | 74.1 ± 5.3 | – |
| CCCCN1CCN(c2ccccc2F)CC1 [Compound 3a] | 96.2 ± 16.9 | 4.0 | partially displace; also recorded: moderate affinity | 20.3 ± 16.2 | Ki (human 5-HT1A receptor): 67.8 ± 4.6 nM |
| CCCCN1CCN(c2ccc(C(F)(F)F)cc2F)CC1 [Compound 3e] | 1410 ± 59.1 | 5.3 | – | -11.6 ± 15.4 | – |
| N#Cc1ccc(F)c(N2CCN(CCCCNC(=O)c3ccc(-c4cscn4)cc3)CC2)c1 [Compound 7d] | 28.1 ± 0.8 | 274 | – | -5.6 ± 18.3 | – |
